Holding throughout (type): cell-based
Assay [1] concerns Staphylococcus aureus 209P. The experiment in a line: in vitro antibacterial activity (MIC). To be noted: collection strain, read-out: MIC (minimal inhibitory concentration).
Assay [2] concerns Staphylococcus aureus 153. The experiment in a line: in vitro antibacterial activity (MIC). To be noted: lactamase producer, read-out: MIC (minimal inhibitory concentration).
Assay [3] concerns Staphylococcus aureus PV2. The assay is described as follows: in vitro antibacterial activity (MIC). To be noted: read-out: MIC (minimal inhibitory concentration).
Assay [4] deals with Staphylococcus aureus Smith. The experiment in a line: in vitro antibacterial activity (MIC). As to conditions: collection strain, read-out: MIC (minimal inhibitory concentration).
The test system of assay [5] is Streptococcus pyogenes. The experiment in a line: in vitro antibacterial activity (MIC). To be noted: in vitro, read-out: MIC (minimal inhibitory concentration).
Assay [6] relates to Escherichia coli B. The assay is described as follows: in vitro antibacterial activity (MIC). To be noted: in vitro; Escherichia coli B; collection strain; read-out: MIC (minimal inhibitory concentration).
Assay [7] deals with Escherichia coli V14. The assay is described as follows: in vitro antibacterial activity (MIC). To be noted: read-out: MIC (minimal inhibitory concentration).
Assay [8] concerns Escherichia coli V23. The experiment in a line: in vitro antibacterial activity (MIC). To be noted: read-out: MIC (minimal inhibitory concentration).
Assay [9] concerns Enterobacter sp V19. The experiment in a line: in vitro antibacterial activity (MIC). To be noted: read-out: MIC (minimal inhibitory concentration).
Assay [10] concerns Klebsiella sp. R2. The experiment in a line: in vitro antibacterial activity (MIC). As to conditions: read-out: MIC (minimal inhibitory concentration).
The subject of assay [11] is Proteus vulgaris V15. The assay is described as follows: in vitro antibacterial activity (MIC). To be noted: read-out: MIC (minimal inhibitory concentration).
Assay [12] relates to Proteus mirabilis V15. The experiment in a line: in vitro antibacterial activity (MIC). As to conditions: read-out: MIC (minimal inhibitory concentration).
Assay [13] deals with Proteus mirabilis 525. The experiment in a line: in vitro antibacterial activity (MIC). To be noted: in vitro; Proteus mirabilis 525; read-out: MIC (minimal inhibitory concentration).
The subject of assay [14] is Shigella flexneri. The experiment in a line: in vitro antibacterial activity (MIC). To be noted: read-out: MIC (minimal inhibitory concentration). Here is the method:
A series of tests was carried out in vitro to compare the activities of (5R)-acetoxymethyl-2-acetoxymethyl-2-penum-3-carboxylate (Laboratory code FCE/20077/B40/341), (5R) acetoxymethyl-2-[(1-methyl-1H-tetrazol-5-yl)-thiomethyl]-2-penem-3-carboxylate (compound A), three reference compounds (ampicillin, cefoxitin, and thienamycin), and compound 387, which is (5R)-2-acetoxymethyl-6-(1-hydroxyethyl)-2-penem-3-carboxylic acid. The acetoxymethoxy ester of compound 387 is prepared in Example 51 and the sodium salt of the acid is prepared in Example 98 infra. Table 1 below reports the results of the above assays as MIC (minimal inhibitory concentration).

In assay [15] the test system is Pseudomonas aeruginosa. The assay is described as follows: in vitro antibacterial activity (MIC). As to conditions: read-out: MIC (minimal inhibitory concentration).
Assay [16] concerns Salmonella typhimurium. The experiment in a line: in vitro antibacterial activity (MIC). As to conditions: Salmonella enterica, Salmonella typhimurium (first listing), read-out: MIC (minimal inhibitory concentration).
For assay [17], the system named is Salmonella panamae F15. The experiment in a line: in vitro antibacterial activity (MIC). To be noted: in vitro; Salmonella panamae F15; read-out: MIC (minimal inhibitory concentration).
The subject of assay [18] is Salmonella Saint Paul F20. The experiment in a line: in vitro antibacterial activity (MIC). As to conditions: read-out: MIC (minimal inhibitory concentration).
Assay [19] deals with Salmonella derby F14. The experiment in a line: in vitro antibacterial activity (MIC). To be noted: Salmonella enterica, read-out: MIC (minimal inhibitory concentration).
For assay [20], the system named is Salmonella montevideo F16. The experiment in a line: in vitro antibacterial activity (MIC). To be noted: Salmonella enterica, read-out: MIC (minimal inhibitory concentration).
Assay [21] deals with Escherichia coli B Cef R. The experiment in a line: in vitro antibacterial activity (MIC). To be noted: read-out: MIC (minimal inhibitory concentration).
In assay [22] the test system is Escherichia coli RGN 238. The assay is described as follows: in vitro antibacterial activity (MIC). To be noted: RGN238, lactamase producer, read-out: MIC (minimal inhibitory concentration).
The test system of assay [23] is Escherichia coli P 453. The assay is described as follows: in vitro antibacterial activity (MIC). As to conditions: P453; in vitro; Escherichia coli P 453; lactamase producer; read-out: MIC (minimal inhibitory concentration).
The test system of assay [24] is Escherichia coli R 997. The experiment in a line: in vitro antibacterial activity (MIC). As to conditions: R997, read-out: MIC (minimal inhibitory concentration).
In assay [25] the test system is Escherichia coli RP 1. The assay is described as follows: in vitro antibacterial activity (MIC). To be noted: RP1, read-out: MIC (minimal inhibitory concentration).
Assay [26] relates to Escherichia coli R 6 K. The experiment in a line: in vitro antibacterial activity (MIC). As to conditions: R6K, read-out: MIC (minimal inhibitory concentration).
Assay [27] relates to Pseudomonas aeruginosa FI. The assay is described as follows: in vitro antibacterial activity (MIC). As to conditions: collection strain, read-out: MIC (minimal inhibitory concentration).
Assay [28] has as its system Klebsiella aerogenes ATCC 1082 E. The experiment in a line: in vitro antibacterial activity (MIC). To be noted: ATCC1082; in vitro; Klebsiella aerogenes ATCC 1082 E; lactamase producer; read-out: MIC (minimal inhibitory concentration).
Assay [29] concerns Klebsiella pneumoniae ATCC 10031. The assay is described as follows: in vitro antibacterial activity (MIC), second listing of the strain. As to conditions: ATCC10031, collection strain (second listing), read-out: MIC (minimal inhibitory concentration).
Assay [30] has the same test system. The assay is described as follows: in vitro antibacterial activity (MIC). As to conditions: ATCC10031, Klebsiella pneumoniae ATCC 10031 (first listing), read-out: MIC (minimal inhibitory concentration).

SMILES strings stand for the structures. ≈ marks a conversion by molar mass, not a printed value. Read-outs that look alike come from different tables or passages of the source. Where only a bound is given, the exact number is not on record here.

`CC(=O)OCOC(=O)C1=C(COC(C)=O)S[C@@H]2CC(=O)N12` [FCE/20077/B40/341, (5R)-Acetoxymethyl-2-acetoxymethyl-2-penem-3-carboxylate]: the MIC is 0.39 mg/L (≈ 1.24 µM) in assay [1]; 1.56 mg/L (≈ 4.95 µM) in [2]; 0.39 mg/L (≈ 1.24 µM) in assay [3]; at most 0.19 mg/L in [4]; 3.12 mg/L (≈ 9.9 µM) in assay [5]; 1.56 mg/L (≈ 4.95 µM) in assay [6]. The MIC in assay [7] amounted to 1.56 mg/L (≈ 4.95 µM); in assay [8] it was 3.12 mg/L (≈ 9.9 µM); in assay [9], 12.5 mg/L (≈ 39.6 µM); in assay [10], 25 mg/L (≈ 79.3 µM); in assay [11], 3.12 mg/L (≈ 9.9 µM); in assay [12], 0.39 mg/L (≈ 1.24 µM). Further, the MIC in assay [13] amounted to 3.12 mg/L (≈ 9.9 µM); in [14], 0.39 mg/L (≈ 1.24 µM); in assay [15] (in vitro), 3.12 mg/L (≈ 9.9 µM); in assay [16], 1.56 mg/L (≈ 4.95 µM); in [17], 1.56 mg/L (≈ 4.95 µM); in assay [18] it was 1.56 mg/L (≈ 4.95 µM). The MIC in assay [19] and in [20] was 3.12 mg/L (≈ 9.9 µM) in each case.
As to `C[C@@H](O)[C@H]1C(=O)N2C(C(=O)O)=C(SCCN)C[C@H]12` [Thienamycin], the MIC in [1] was at most 0.39 mg/L; in assay [6] it was 0.78 mg/L (≈ 2.86 µM); in assay [15], 12.5 mg/L (≈ 45.9 µM); in assay [21], 12.5 mg/L (≈ 45.9 µM); in assay [22] it was 0.36 mg/L (≈ 1.32 µM); in [23], 0.78 mg/L (≈ 2.86 µM). In addition, the MIC came to 0.36 mg/L (≈ 1.32 µM) in [24]; 0.36 mg/L (≈ 1.32 µM) in assay [25]; 0.78 mg/L (≈ 2.86 µM) in assay [26]; 12.5 mg/L (≈ 45.9 µM) in [27]; 1.56 mg/L (≈ 5.73 µM) in assay [28]; 1.56 mg/L (≈ 5.73 µM) in assay [29].
`CC(=O)OCOC(=O)C1=C(CSc2nnnn2C)S[C@@H]2CC(=O)N12` [Compound A, (5R)-Acetoxymethyl-2-[(1-methyl-1-H-tetrazol-5-yl)-thiomethyl]-2-penem-3-carboxylate]: the MIC was 0.39 mg/L (≈ 1.05 µM) in assay [1]; 0.78 mg/L (≈ 2.1 µM) in assay [2]; 0.78 mg/L (≈ 2.1 µM) in assay [3]; 0.39 mg/L (≈ 1.05 µM) in assay [4]; 0.78 mg/L (≈ 2.1 µM) in [5]; 0.78 mg/L (≈ 2.1 µM) in [6]. In addition, the MIC in assay [7] is 0.78 mg/L (≈ 2.1 µM); in [8], 0.78 mg/L (≈ 2.1 µM); in assay [9], over 100 mg/L; in assay [30], 3.12 mg/L (≈ 8.4 µM); in assay [11], 6.25 mg/L (≈ 16.8 µM); in assay [12], 0.78 mg/L (≈ 2.1 µM). Moreover, the MIC in [13] came to 0.78 mg/L (≈ 2.1 µM); in assay [14] it was 0.39 mg/L (≈ 1.05 µM); in assay [15] (in vitro), 0.39 mg/L (≈ 1.05 µM); in [16] it was 0.78 mg/L (≈ 2.1 µM); in assay [17], 0.78 mg/L (≈ 2.1 µM); in assay [18] it was 0.78 mg/L (≈ 2.1 µM). Besides, the MIC in assay [19] and in assay [20] was 0.78 mg/L (≈ 2.1 µM) each time.
